Experimental data as given in publication PMC11094307, “Marine-derived EGFR inhibitors: novel compounds targeting breast cancer growth and drug resistance” (Frontiers in Pharmacology, 2024).
Values joined by “and” are separate entries in the source; they are usually repeats but may differ in a detail not shown here. Equal values may be shown once.

Tests used:
MCF-7 cells [1] = assay: Cell cycle analysis by flow cytometry (PI); format: cell-based, human; conditions: 20 μM, 24 h
Description: After 24 h of treatment with various concentrations of compounds, MCF-7 cells were harvested and washed twice with phosphate-buffered saline (PBS). For cell cycle analysis, the cells were initially fixed with 70% ethanol at 4°C overnight and subsequently washed with PBS. The fixed cells were then resuspended in 1× PBS containing 0.5% Triton X-100, 50 μg/mL propidium iodide (PI), and 50 μg/mL DNase-free RNase A, and incubated at 37°C for 30 min in darkness. Following incubation, cell cycle distribution was assessed using a BD FACSCanto™ flow cytometer.

MCF-7 cells [2] = assay: Annexin V-FITC/PI apoptosis analysis; format: cell-based, human; conditions: 24 h
Description: Apoptosis was evaluated using the Annexin V-FITC/PI Apoptosis Detection Kit (Vazyme). The harvested MCF-7 cells were first resuspended in 1× binding buffer from the kit to achieve a final concentration of 1×10^6 cells/ml. Next, 100 μL of the cell suspension, 5 μL of Annexin V, and 10 μL of PI were mixed and incubated in the dark for 15 min. Subsequently, 400 μL of 1× binding buffer was added to the mixture in preparation for apoptosis analysis.

EGFR L858R = target: T1, EGFR L858R (Homo sapiens, UniProt P00533, L858R); assay: Kinase inhibition assay (ADP-Glo, Promega); format: biochemical; conditions: in vitro kinase assay; read-out: IC50 against EGFR L858R
T1 construct: purchased Promega Corporation, USA
Description: (§1) The extracellular ligand-binding domain of EGFR, tagged with His, and the intracellular tyrosine kinase (TK) domain of EGFR, tagged with GST, were acquired from Sinobiological, China. […] Cell lines including MCF-7, A549, A431, H1299, HL-60, and MCF-10A were obtained from the China Infrastructure Cell Line Resources.
(§2) The experiments were conducted in accordance with the manufacturer’s guidelines (Promega). The procedure began with a kinase reaction, where 5 μL of 1× kinase buffer was utilized, and the mixture was incubated at room temperature for 60 min. This step was followed by the addition of 5 μL of ADP-Glo™ reagent to terminate the kinase reaction and to deplete any remaining ATP, with a subsequent incubation period of 40 min at room temperature. Next, 10 μL of kinase detection reagent was added to convert ADP back into ATP, and luciferase along with luciferin was introduced to facilitate ATP detection. This mixture was then incubated at room temperature for an additional 30 min. Detection was carried out using a BioTek Synergy4 instrument, and data analysis, including curve fitting and presentation, was performed using GraphPad Prism version 5.0.
(§3) All experiments were repeated at least three times, and the data are presented as mean ± standard deviation (SD). The statistical analyses were performed using Origin. EC50 or IC50 values were obtained by fitting the data to a four-parameter Hill model of the graph of log dose against percentage cell viability or inhibition from at least three sets of experiments. Difference between two groups were analyzed by Student’s t test (two-sided) and significance was set at p < 0.05. The specific details about statistical methods are introduced in respective figure legends.

EGFR L858R/T790M = target: T2, EGFR L858R/T790M (Homo sapiens, UniProt P00533, L858R/T790M); assay: Kinase inhibition assay (ADP-Glo, Promega); format: biochemical; conditions: in vitro kinase assay; read-out: IC50 against EGFR L858R/T790M
T2 construct: purchased Promega Corporation, USA
Description: as §1, §2, §3

WT EGFR = target: T3, WT EGFR (Homo sapiens, UniProt P00533); assay: Kinase inhibition assay (ADP-Glo, Promega); format: biochemical; conditions: in vitro kinase assay; read-out: IC50 against WT EGFR
T3 construct: purchased Promega Corporation, USA
Description: as §1, §2, §3

EGFR = target: T4, EGFR (Homo sapiens, UniProt P00533); assay: CETSA in MCF-7 cells; format: cell-based; conditions: for CETSA WB Normalized (Figure 3F): control 0 µM 0.614197892
T4 construct: endogenous in cells; host or cells: MCF-7
Description: In the CETSA, MCF-7 cells were treated with varying concentrations of Tandyukisin (5, 10, 20 µM) or a control solution of 0.2% DMSO for 24 h. Following treatment, cells were harvested and washed with PBS to eliminate any residual drug, then an equal number of cells were allocated into 0.2 mL PCR tubes. These cells were resuspended in 100 µL PBS supplemented with a complete protease inhibitor cocktail and subjected to a heating step at […] for 3 min. Post-heating, the cells underwent lysis through three cycles of freeze-thaw using liquid nitrogen, followed by centrifugation at 12,000g for 20 min at 4°C to separate the lysate. The clarified supernatant from each tube was then carefully transferred to fresh tubes for Western blotting.
To confirm Tandyukisin directly bound EGFR in cells, CETSA was conducted. Currently, CETSA is widely used in drug target discovery assay and is based on the thermal stability changes after drugs bind to their targets ([Martinez Molina et al., 2013]; [Jafari et al., 2014]). After treatment with Tandyukisin at 5, 10, 20 μM for 24 h, the multiple aliquots of the cell suspension were heated at 55°C. The heated cells were subsequently lysed and centrifuged to separate soluble fractions from precipitated denatured EGFR. After thermal denaturation, EGFR in the soluble fraction was examined by Western blotting.

[3] = target: T5, EGFR extracellular ligand binding domain (Homo sapiens, UniProt P00533); assay: SPR binding (Biacore 8K)
T5 construct: His; purchased Sinobiological, China
From the text: (§4) The extracellular ligand-binding domain of EGFR, tagged with His, and the intracellular tyrosine kinase (TK) domain of EGFR, tagged with GST, were acquired from Sinobiological, China. Kinase assay systems for both wild-type EGFR and its mutants—T790M, L858R, and the dual L858R/T790M—were procured from Promega Corporation, USA. Cell lines including MCF-7, A549, A431, H1299, HL-60, and MCF-10A were obtained from the China Infrastructure Cell Line Resources.
(§5) The binding affinities of compounds towards EGFR extracellular ligand binding domain and EGFR intracellular kinase domain were assayed using the SPR-based Biacore 8K instrument (Cytiva). Considering the purchased EGFR was fused with GST tag, GST alone was also immobilized on the chip to do the binding measurement. All the proteins were respectively immobilized on a CM5 sensor chip by using standard amine-coupling at 25°C with running buffer HEPES-P (20 mM HEPES buffer, […], 0.05% surfactant P20, pH 7.4). A reference channel was only activated and blocked to eliminate compound unspecific binding to the surface of the chip. The immobilization level of EGFR extracellular ligand binding domain, EGFR intracellular kinase domain and GST were all about 10,000 RU. […] Extra wash with 50% DMSO was added to remove the last remaining sample in the pipeline.

[4] = target: EGFR intracellular kinase domain (Homo sapiens, UniProt P00533); assay: SPR binding (Biacore 8K); set-up: the intracellular tyrosine kinase (TK) domain of EGFR, tagged with GST; purchased Sinobiological, China; conditions: without ATP
From the text: as §4, §5

T4 sequence (P00533 25-1210): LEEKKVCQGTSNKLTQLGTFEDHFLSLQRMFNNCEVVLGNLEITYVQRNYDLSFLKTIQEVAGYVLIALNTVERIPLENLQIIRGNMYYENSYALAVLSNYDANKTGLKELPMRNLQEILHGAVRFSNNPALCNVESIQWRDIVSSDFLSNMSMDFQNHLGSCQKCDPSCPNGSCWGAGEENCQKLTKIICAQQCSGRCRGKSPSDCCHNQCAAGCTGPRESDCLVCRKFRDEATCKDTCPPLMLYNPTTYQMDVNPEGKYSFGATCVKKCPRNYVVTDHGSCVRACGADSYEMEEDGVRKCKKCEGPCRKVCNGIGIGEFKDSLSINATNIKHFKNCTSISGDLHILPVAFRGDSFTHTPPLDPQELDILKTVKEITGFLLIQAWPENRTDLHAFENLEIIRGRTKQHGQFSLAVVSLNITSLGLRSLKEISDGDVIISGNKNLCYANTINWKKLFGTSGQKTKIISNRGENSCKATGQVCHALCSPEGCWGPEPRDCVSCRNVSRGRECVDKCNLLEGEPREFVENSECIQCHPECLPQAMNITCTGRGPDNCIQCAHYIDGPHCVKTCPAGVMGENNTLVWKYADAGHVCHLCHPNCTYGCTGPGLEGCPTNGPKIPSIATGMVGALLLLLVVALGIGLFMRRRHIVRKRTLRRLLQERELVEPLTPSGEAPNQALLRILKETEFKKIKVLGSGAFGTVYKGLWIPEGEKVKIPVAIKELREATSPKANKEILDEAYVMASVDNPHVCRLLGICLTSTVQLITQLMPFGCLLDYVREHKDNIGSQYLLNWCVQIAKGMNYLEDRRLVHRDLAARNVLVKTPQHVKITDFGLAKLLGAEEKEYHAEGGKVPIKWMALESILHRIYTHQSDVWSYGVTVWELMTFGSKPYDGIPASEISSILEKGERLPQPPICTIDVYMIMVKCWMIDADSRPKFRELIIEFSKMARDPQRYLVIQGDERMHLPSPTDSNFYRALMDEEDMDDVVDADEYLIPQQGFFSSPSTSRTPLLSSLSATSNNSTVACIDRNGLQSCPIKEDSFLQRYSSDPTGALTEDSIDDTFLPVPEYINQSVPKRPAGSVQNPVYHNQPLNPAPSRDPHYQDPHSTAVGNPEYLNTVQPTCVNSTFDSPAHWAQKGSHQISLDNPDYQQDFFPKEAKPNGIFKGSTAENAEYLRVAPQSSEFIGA
T3 sequence (P00533 25-1210): as above
Sequence of EGFR intracellular kinase domain (P00533 712-979 limits assumed): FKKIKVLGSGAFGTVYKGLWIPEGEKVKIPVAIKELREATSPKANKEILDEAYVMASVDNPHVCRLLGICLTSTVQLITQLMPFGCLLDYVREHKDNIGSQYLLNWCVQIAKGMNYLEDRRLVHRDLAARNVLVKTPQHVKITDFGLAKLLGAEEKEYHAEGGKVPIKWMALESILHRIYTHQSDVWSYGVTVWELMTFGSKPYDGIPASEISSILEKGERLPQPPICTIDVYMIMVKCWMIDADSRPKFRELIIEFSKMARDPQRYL
T5 sequence (P00533 25-645 limits assumed): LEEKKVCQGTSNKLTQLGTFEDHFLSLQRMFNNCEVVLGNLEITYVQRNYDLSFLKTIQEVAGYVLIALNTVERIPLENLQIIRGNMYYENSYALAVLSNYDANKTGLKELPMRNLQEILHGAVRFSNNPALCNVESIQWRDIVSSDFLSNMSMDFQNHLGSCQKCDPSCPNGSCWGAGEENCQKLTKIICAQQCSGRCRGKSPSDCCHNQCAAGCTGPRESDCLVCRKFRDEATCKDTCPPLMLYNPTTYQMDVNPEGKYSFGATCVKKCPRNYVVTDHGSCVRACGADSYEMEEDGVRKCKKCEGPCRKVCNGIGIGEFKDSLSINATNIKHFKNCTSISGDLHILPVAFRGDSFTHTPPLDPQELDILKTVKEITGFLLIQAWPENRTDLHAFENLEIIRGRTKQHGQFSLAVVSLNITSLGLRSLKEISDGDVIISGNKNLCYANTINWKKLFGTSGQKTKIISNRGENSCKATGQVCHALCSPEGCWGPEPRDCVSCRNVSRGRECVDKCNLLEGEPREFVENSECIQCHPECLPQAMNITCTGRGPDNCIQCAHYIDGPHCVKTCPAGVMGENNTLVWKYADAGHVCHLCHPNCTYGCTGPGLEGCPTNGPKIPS
T2 sequence (P00533 25-1210 T790M/L858R): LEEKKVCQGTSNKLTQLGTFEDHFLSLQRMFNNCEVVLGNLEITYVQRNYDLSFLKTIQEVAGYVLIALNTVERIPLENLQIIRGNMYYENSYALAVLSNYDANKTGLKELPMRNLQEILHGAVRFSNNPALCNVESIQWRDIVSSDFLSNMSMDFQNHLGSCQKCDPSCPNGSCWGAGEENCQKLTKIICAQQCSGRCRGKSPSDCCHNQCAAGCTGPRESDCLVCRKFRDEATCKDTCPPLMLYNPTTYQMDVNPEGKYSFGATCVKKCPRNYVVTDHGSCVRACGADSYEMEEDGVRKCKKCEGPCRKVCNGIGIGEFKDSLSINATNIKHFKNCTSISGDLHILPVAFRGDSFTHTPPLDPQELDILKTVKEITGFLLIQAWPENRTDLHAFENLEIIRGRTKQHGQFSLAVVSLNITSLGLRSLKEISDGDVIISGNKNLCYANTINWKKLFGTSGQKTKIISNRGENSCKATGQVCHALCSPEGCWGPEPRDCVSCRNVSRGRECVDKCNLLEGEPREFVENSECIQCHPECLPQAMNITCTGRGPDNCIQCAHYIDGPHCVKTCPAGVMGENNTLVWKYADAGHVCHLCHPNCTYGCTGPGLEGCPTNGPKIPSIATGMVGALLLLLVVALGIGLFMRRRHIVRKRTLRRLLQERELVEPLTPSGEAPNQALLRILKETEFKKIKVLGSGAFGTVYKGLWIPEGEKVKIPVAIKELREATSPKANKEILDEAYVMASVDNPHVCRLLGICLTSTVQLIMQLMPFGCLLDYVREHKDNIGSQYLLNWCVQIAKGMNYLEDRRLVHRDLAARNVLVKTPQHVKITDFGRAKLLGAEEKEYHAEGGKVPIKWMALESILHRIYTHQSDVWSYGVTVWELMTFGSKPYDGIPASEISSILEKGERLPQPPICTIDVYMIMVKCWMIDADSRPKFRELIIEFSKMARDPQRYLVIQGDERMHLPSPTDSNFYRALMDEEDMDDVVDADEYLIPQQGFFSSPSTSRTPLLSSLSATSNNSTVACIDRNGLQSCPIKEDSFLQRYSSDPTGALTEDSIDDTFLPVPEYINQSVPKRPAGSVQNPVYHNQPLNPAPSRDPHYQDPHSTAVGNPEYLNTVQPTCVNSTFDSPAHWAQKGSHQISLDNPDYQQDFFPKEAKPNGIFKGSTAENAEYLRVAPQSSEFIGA

## COC(=O)C/C(C)=C/C(=O)O[C@@H]1C[C@@H](C)[C@H]2[C@@H](C=C[C@H](CC(C)C)[C@]2(C)C(=O)/C=C\O)[C@@H]1O [Tandyukisin]
MCF-7 cells [1]
  percentage of cells in G0/G1 phase: 85.67%
MCF-7 cells [2]; 5 μM
  apoptosis ratio (lower right quadrant, early apoptosis: PI negative, annexin V-FITC positive): 12.10%
MCF-7 cells [2]; 10 μM
  apoptosis ratio (lower right quadrant, early apoptosis: PI negative, annexin V-FITC positive): 14.37%
MCF-7 cells [2]; 20 μM
  apoptosis ratio (lower right quadrant, early apoptosis: PI negative, annexin V-FITC positive): 19.24%
EGFR L858R
  IC50: 3.1 ± 0.1 nM
EGFR L858R/T790M
  IC50: 237 ± 28 nM
WT EGFR
  IC50: 10.6 nM and 10 nM and ~10 nM
EGFR; 5 µM
  CETSA WB Gray Value (Figure 3F): 29078.924
  CETSA WB Normalized (Figure 3F): 0.7019
EGFR; 10 µM
  CETSA WB Gray Value (Figure 3F): 31150.702
  CETSA WB Normalized (Figure 3F): 0.8063
EGFR; 20 µM
  CETSA WB Gray Value (Figure 3F): 42106.53
  CETSA WB Normalized (Figure 3F): 1.166
EGFR; MCF-7, 5, 10, 20 μM, 24 h, heated
  accumulation of EGFR in the soluble fraction (CETSA) compared with DMSO control: markable increase
[3]
  Kd: 101 µM
[3]; Figure 4C-D, read-out: ka, EGFR ligand binding domain
  kon: 109 M⁻¹ s⁻¹
[4]
  Kd: 5.57 µM
[4]; Figure 4A-B, read-out: ka, EGFR kinase domain
  kon: 3050 M⁻¹ s⁻¹
